PubChem BioAssay (NCI)
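GI50 marks 50% less growth. TGI: concentration producing complete growth inhibition.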

Columns and labels:
Assay in all cases: inhibition of tumour cell growth, NCI panel, 384-well format
BT-549 breast = test system: BT-549 breast
TK-10 renal = test system: TK-10 renal
SF-295 CNS = test system: SF-295 CNS
OVCAR-3 ovarian = test system: OVCAR-3 ovarian
RPMI-8226 leukemia = test system: RPMI-8226 leukemia
EKVX NSCLC = test system: EKVX NSCLC
UO-31 renal = test system: UO-31 renal
DU-145 prostate = test system: DU-145 prostate
NCI-H460 NSCLC = test system: NCI-H460 NSCLC
A498 renal = test system: A498 renal
SW-620 colon = test system: SW-620 colon
A549 NSCLC = test system: A549 NSCLC
IGROV1 ovarian = test system: IGROV1 ovarian
OVCAR-4 ovarian = test system: OVCAR-4 ovarian
HOP-92 NSCLC = test system: HOP-92 NSCLC
HL-60(TB) leukemia = test system: HL-60(TB) leukemia
PC-3 prostate = test system: PC-3 prostate
MOLT-4 leukemia = test system: MOLT-4 leukemia
HOP-62 NSCLC = test system: HOP-62 NSCLC
HCT-116 colon = test system: HCT-116 colon
MCF7 breast = test system: MCF7 breast
NCI/ADR-RES ovarian = test system: NCI/ADR-RES ovarian
KM12 colon = test system: KM12 colon
ACHN renal = test system: ACHN renal
CAKI-1 renal = test system: CAKI-1 renal
U251 glioblastoma = test system: U251 glioblastoma
NCI-H226 lung = test system: NCI-H226 lung
MDA-MB-468 breast = test system: MDA-MB-468 breast
M14 melanoma = test system: M14 melanoma
HCT-15 colon = test system: HCT-15 colon
HCC-2998 colon = test system: HCC-2998 colon
LOX IMVI melanoma = test system: LOX IMVI melanoma
HT29 colon = test system: HT29 colon
UACC-62 melanoma = test system: UACC-62 melanoma
SNB-75 CNS = test system: SNB-75 CNS
OVCAR-8 ovarian = test system: OVCAR-8 ovarian
COLO 205 colon = test system: COLO 205 colon
SF-268 CNS = test system: SF-268 CNS
786-0 renal = test system: 786-0 renal
CCRF-CEM leukemia = test system: CCRF-CEM leukemia
OVCAR-5 ovarian = test system: OVCAR-5 ovarian

SMILES: CCNCCS(=O)(=O)NC[C@@]1(c2ccccc2)SC(NC(=O)C(C)(C)C)=NN1C(=O)C(C)(C)C
- GI50 (BT-549 breast): < 10 nM
- TGI (BT-549 breast): 58.9 µM
- GI50 (TK-10 renal): 26.4 µM
- TGI (TK-10 renal): > 100 µM
- GI50 (SF-295 CNS): 17.7 nM
- TGI (SF-295 CNS): > 100 µM
- GI50 (OVCAR-3 ovarian): < 10 nM
- TGI (OVCAR-3 ovarian): < 10 nM
- GI50 (RPMI-8226 leukemia): < 10 nM
- TGI (RPMI-8226 leukemia): < 10 nM
- GI50 (EKVX NSCLC): < 10 nM
- TGI (EKVX NSCLC): > 100 µM
- GI50 (UO-31 renal): 63.3 µM
- TGI (UO-31 renal): > 100 µM
- GI50 (DU-145 prostate): < 10 nM
- TGI (DU-145 prostate): > 100 µM
- GI50 (NCI-H460 NSCLC): < 10 nM
- TGI (NCI-H460 NSCLC): < 10 nM
- GI50 (A498 renal): < 10 nM
- TGI (A498 renal): > 100 µM
- GI50 (SW-620 colon): < 10 nM
- TGI (SW-620 colon): 62.6 µM
- GI50 (A549 NSCLC): < 10 nM
- TGI (A549 NSCLC): > 100 µM
- GI50 (IGROV1 ovarian): < 10 nM
- TGI (IGROV1 ovarian): > 100 µM
- GI50 (OVCAR-4 ovarian): 29.5 µM
- TGI (OVCAR-4 ovarian): > 100 µM
- GI50 (HOP-92 NSCLC): < 10 nM
- TGI (HOP-92 NSCLC): 62 µM
- GI50 (HL-60(TB) leukemia): < 10 nM
- TGI (HL-60(TB) leukemia): < 10 nM
- GI50 (PC-3 prostate): < 10 nM
- TGI (PC-3 prostate): > 100 µM
- GI50 (MOLT-4 leukemia): < 10 nM
- TGI (MOLT-4 leukemia): < 10 nM
- GI50 (HOP-62 NSCLC): < 10 nM
- TGI (HOP-62 NSCLC): 75.6 µM
- GI50 (HCT-116 colon): < 10 nM
- TGI (HCT-116 colon): > 100 µM
- GI50 (MCF7 breast): < 10 nM
- TGI (MCF7 breast): 42.7 µM
- GI50 (NCI/ADR-RES ovarian): 3.42 µM
- TGI (NCI/ADR-RES ovarian): > 100 µM
- GI50 (KM12 colon): < 10 nM
- TGI (KM12 colon): > 100 µM
- GI50 (ACHN renal): 52.6 µM
- TGI (ACHN renal): > 100 µM
- GI50 (CAKI-1 renal): 42.7 nM
- TGI (CAKI-1 renal): > 100 µM
- GI50 (U251 glioblastoma): < 10 nM
- TGI (U251 glioblastoma): > 100 µM
- GI50 (NCI-H226 lung): 74.6 µM
- TGI (NCI-H226 lung): > 100 µM
- GI50 (MDA-MB-468 breast): < 10 nM
- TGI (MDA-MB-468 breast): < 10 nM
- GI50 (M14 melanoma): < 10 nM
- TGI (M14 melanoma): < 10 nM
- GI50 (HCT-15 colon): 108 nM
- TGI (HCT-15 colon): > 100 µM
- GI50 (HCC-2998 colon): < 10 nM
- TGI (HCC-2998 colon): 24.6 µM
- GI50 (LOX IMVI melanoma): < 10 nM
- TGI (LOX IMVI melanoma): 22.4 µM
- GI50 (HT29 colon): < 10 nM
- TGI (HT29 colon): < 10 nM
- GI50 (UACC-62 melanoma): < 10 nM
- TGI (UACC-62 melanoma): > 100 µM
- GI50 (SNB-75 CNS): < 10 nM
- TGI (SNB-75 CNS): 48.7 µM
- GI50 (OVCAR-8 ovarian): < 10 nM
- TGI (OVCAR-8 ovarian): > 100 µM
- GI50 (COLO 205 colon): < 10 nM
- TGI (COLO 205 colon): < 10 nM
- GI50 (SF-268 CNS): < 10 nM
- TGI (SF-268 CNS): < 10 nM
- GI50 (786-0 renal): < 10 nM
- TGI (786-0 renal): 28.6 µM
- GI50 (CCRF-CEM leukemia): < 10 nM
- TGI (CCRF-CEM leukemia): < 10 nM
- GI50 (OVCAR-5 ovarian): < 10 nM
- TGI (OVCAR-5 ovarian): > 100 µM
